From publication PMC10178848, “Modulating fast skeletal muscle contraction protects skeletal muscle in animal models of Duchenne muscular dystrophy” (The Journal of Clinical Investigation, 2023)
Where two headings read alike, the source gives them in different places.

Test system: GRMD plasma proteins
Format: in vivo, dog
[1] = EDG-5506 treatment to GRMD baseline, Decreased in GRMD

O=c1ccc(-c2cnc(OCC(F)(F)F)nc2)nn1Cc1cncc(F)c1 [EDG-5506]
Change from GRMD Baseline (fraction) (3-hydroxy-3-methylglutaryl-coenzyme A reductase (HMGCR), EDG-5506 treatment to GRMD baseline): 0.149 fraction | Change from GRMD Baseline (fraction) (3-hydroxy-3-methylglutaryl-coenzyme A reductase (HMGCR), Post-Treatment to GRMD baseline): -0.0053 fraction | Change from GRMD Baseline (fraction) (Annexin A5 (ANXA5), EDG-5506 treatment to GRMD baseline): 0.0604 fraction | Change from GRMD Baseline (fraction) (Annexin A5 (ANXA5), Post-Treatment to GRMD baseline): -0.0309 fraction | Change from GRMD Baseline (fraction) (Apolipoprotein M (APOM), EDG-5506 treatment to GRMD baseline): 0.1027 fraction | Change from GRMD Baseline (fraction) (Apolipoprotein M (APOM), Post-Treatment to GRMD baseline): -0.1149 fraction | Change from GRMD Baseline (fraction) (Bactericidal permeability-increasing protein (BPI), EDG-5506 treatment to GRMD baseline): 0.0745 fraction | Change from GRMD Baseline (fraction) (Bactericidal permeability-increasing protein (BPI), Post-Treatment to GRMD baseline): 0.1503 fraction | Change from GRMD Baseline (fraction) (Basigin (BSG), EDG-5506 treatment to GRMD baseline): 0.1541 fraction | Change from GRMD Baseline (fraction) (Basigin (BSG), Post-Treatment to GRMD baseline): -0.07 fraction | Change from GRMD Baseline (fraction) (Brain-derived neurotrophic factor (BDNF), EDG-5506 treatment to GRMD baseline): 0.0859 fraction | Change from GRMD Baseline (fraction) (Brain-derived neurotrophic factor (BDNF), Post-Treatment to GRMD baseline): -0.07 fraction | Change from GRMD Baseline (fraction) (Calcium/calmodulin-dependent 3',5'-cyclic nucleotide phosphodiesterase 1A (PDE1A), EDG-5506 treatment to GRMD baseline): 0.0363 fraction | Change from GRMD Baseline (fraction) (Calcium/calmodulin-dependent 3',5'-cyclic nucleotide phosphodiesterase 1A (PDE1A), Post-Treatment to GRMD baseline): -0.0044 fraction | Change from GRMD Baseline (fraction) (Carbohydrate sulfotransferase 15 (CHST15), EDG-5506 treatment to GRMD baseline): 0.0872 fraction | Change from GRMD Baseline (fraction) (Carbohydrate sulfotransferase 15 (CHST15), Post-Treatment to GRMD baseline): -0.1346 fraction | Change from GRMD Baseline (fraction) (Carbonic anhydrase 7 (CA7), EDG-5506 treatment to GRMD baseline): 0.1779 fraction | Change from GRMD Baseline (fraction) (Carbonic anhydrase 7 (CA7), Post-Treatment to GRMD baseline): 0.1249 fraction | Change from GRMD Baseline (fraction) (Cathepsin G (CTSG), EDG-5506 treatment to GRMD baseline): 0.0969 fraction | Change from GRMD Baseline (fraction) (Cathepsin G (CTSG), Post-Treatment to GRMD baseline): 0.1704 fraction | Change from GRMD Baseline (fraction) (Cathepsin H (CTSH), EDG-5506 treatment to GRMD baseline): 0.1349 fraction | Change from GRMD Baseline (fraction) (Cathepsin H (CTSH), Post-Treatment to GRMD baseline): -0.0348 fraction | Change from GRMD Baseline (fraction) (Ciliary neurotrophic factor (CNTF), EDG-5506 treatment to GRMD baseline): 0.2366 fraction | Change from GRMD Baseline (fraction) (Ciliary neurotrophic factor (CNTF), Post-Treatment to GRMD baseline): 0.313 fraction | Change from GRMD Baseline (fraction) (Collectin-11 (COLEC11), EDG-5506 treatment to GRMD baseline): -0.1017 fraction | Change from GRMD Baseline (fraction) (Collectin-11 (COLEC11), Post-Treatment to GRMD baseline): -0.0756 fraction | Change from GRMD Baseline (fraction) (Complement component C7 (C7), EDG-5506 treatment to GRMD baseline): 0.118 fraction | Change from GRMD Baseline (fraction) (Complement component C7 (C7), Post-Treatment to GRMD baseline): 0.1005 fraction | Change from GRMD Baseline (fraction) (Contactin-2 (CNTN2), EDG-5506 treatment to GRMD baseline): 0.1036 fraction | Change from GRMD Baseline (fraction) (Contactin-2 (CNTN2), Post-Treatment to GRMD baseline): -0.068 fraction | Change from GRMD Baseline (fraction) (Cytotoxic T-lymphocyte protein 4 (CTLA4), EDG-5506 treatment to GRMD baseline): 0.1272 fraction | Change from GRMD Baseline (fraction) (Cytotoxic T-lymphocyte protein 4 (CTLA4), Post-Treatment to GRMD baseline): 0.041 fraction | Change from GRMD Baseline (fraction) (Delta-like protein 4 (DLL4), EDG-5506 treatment to GRMD baseline): 0.0825 fraction | Change from GRMD Baseline (fraction) (Delta-like protein 4 (DLL4), Post-Treatment to GRMD baseline): -0.0212 fraction | Change from GRMD Baseline (fraction) (Dickkopf-related protein 3 (DKK3), EDG-5506 treatment to GRMD baseline): 0.0897 fraction | Change from GRMD Baseline (fraction) (Dickkopf-related protein 3 (DKK3), Post-Treatment to GRMD baseline): -0.0042 fraction | 3-hydroxyisobutyrate dehydrogenase, mitochondrial (HIBADH): Change from GRMD Baseline (fraction) [1]: 0.1537 fraction | 14-3-3 protein beta/alpha (YWHAB): Change from GRMD Baseline (fraction) [1]: -0.0886 fraction | 14-3-3 protein sigma (SFN): Change from GRMD Baseline (fraction) [1]: 0.3172 fraction | 72 kDa type IV collagenase (MMP2): Change from GRMD Baseline (fraction) [1]: 0.1734 fraction | Adrenomedullin (ADM): Change from GRMD Baseline (fraction) [1]: -0.0855 fraction | Aggrecan core protein (ACAN): Change from GRMD Baseline (fraction) [1]: 0.167 fraction | Alpha-synuclein (SNCA): Change from GRMD Baseline (fraction) [1]: 0.0584 fraction | Apolipoprotein B (APOB): Change from GRMD Baseline (fraction) [1]: 0.074 fraction | Appetite-regulating hormone (GHRL): Change from GRMD Baseline (fraction) [1]: 0.1979 fraction | Atrial natriuretic factor (NPPA): Change from GRMD Baseline (fraction) [1]: 0.1398 fraction | BDNF/NT-3 growth factors receptor (NTRK2): Change from GRMD Baseline (fraction) [1]: 0.1937 fraction | BH3-interacting domain death agonist (BID): Change from GRMD Baseline (fraction) [1]: 0.1126 fraction | Bcl-2-related protein A1 (BCL2A1): Change from GRMD Baseline (fraction) [1]: -0.0911 fraction | Bone morphogenetic protein 6 (BMP6): Change from GRMD Baseline (fraction) [1]: 0.2555 fraction | Bone morphogenetic protein 10 (BMP10): Change from GRMD Baseline (fraction) [1]: 0.1398 fraction | C-X-C motif chemokine 10 (CXCL10): Change from GRMD Baseline (fraction) [1]: 0.1922 fraction | C-type mannose receptor 2 (MRC2): Change from GRMD Baseline (fraction) [1]: 0.1728 fraction | CD166 antigen (ALCAM): Change from GRMD Baseline (fraction) [1]: 0.2333 fraction | Cadherin-5 (CDH5): Change from GRMD Baseline (fraction) [1]: 0.1109 fraction | Carboxypeptidase E (CPE): Change from GRMD Baseline (fraction) [1]: 0.0406 fraction | Cell adhesion molecule 1 (CADM1): Change from GRMD Baseline (fraction) [1]: 0.0424 fraction | Chromogranin-A (CHGA): Change from GRMD Baseline (fraction) [1]: 0.2322 fraction | Ciliary neurotrophic factor receptor subunit alpha (CNTFR): Change from GRMD Baseline (fraction) [1]: 0.1045 fraction | Ck-beta-8-1 (CCL23): Change from GRMD Baseline (fraction) [1]: 0.0708 fraction | Coiled-coil domain-containing protein 80 (CCDC80): Change from GRMD Baseline (fraction) [1]: -0.0672 fraction | Collagen alpha-1(VIII) chain (COL8A1): Change from GRMD Baseline (fraction) [1]: 0.2128 fraction | Collagenase 3 (MMP13): Change from GRMD Baseline (fraction) [1]: -0.0939 fraction | Collectin-12 (COLEC12): Change from GRMD Baseline (fraction) [1]: 0.2006 fraction | Complement component C1q receptor (CD93): Change from GRMD Baseline (fraction) [1]: 0.1785 fraction | Complement decay-accelerating factor (CD55): Change from GRMD Baseline (fraction) [1]: -0.0957 fraction | Contactin-1 (CNTN1): Change from GRMD Baseline (fraction) [1]: 0.0923 fraction | Corticotropin (POMC): Change from GRMD Baseline (fraction) [1]: -0.096 fraction | Cytotoxic and regulatory T-cell molecule (CRTAM): Change from GRMD Baseline (fraction) [1]: -0.015 fraction | Dickkopf-related protein 1 (DKK1): Change from GRMD Baseline (fraction) [1]: 0.2889 fraction | Dickkopf-related protein 4 (DKK4): Change from GRMD Baseline (fraction) [1]: 0.1406 fraction | E3 ubiquitin-protein ligase ZNRF3 (ZNRF3): Change from GRMD Baseline (fraction) [1]: -0.0555 fraction | Ephrin type-A receptor 5 (EPHA5): Change from GRMD Baseline (fraction) [1]: 0.0759 fraction | Ephrin-A2 (EFNA2): Change from GRMD Baseline (fraction) [1]: 0.0899 fraction | Ephrin-A5 (EFNA5): Change from GRMD Baseline (fraction) [1]: 0.0839 fraction | Epidermal growth factor receptor (EGFR): Change from GRMD Baseline (fraction) [1]: 0.2223 fraction | Estradiol 17-beta-dehydrogenase 1 (HSD17B1): Change from GRMD Baseline (fraction) [1]: 0.1223 fraction | Fatty acid-binding protein, epidermal (FABP5): Change from GRMD Baseline (fraction) [1]: 0.0517 fraction | Fc receptor-like protein 3 (FCRL3): Change from GRMD Baseline (fraction) [1]: -0.0177 fraction | GDNF family receptor alpha-2 (GFRA2): Change from GRMD Baseline (fraction) [1]: 0.1299 fraction | Galectin-8 (LGALS8): Change from GRMD Baseline (fraction) [1]: 0.0779 fraction | Galectin-9 (LGALS9): Change from GRMD Baseline (fraction) [1]: -0.04 fraction | Gamma-enolase (ENO2): Change from GRMD Baseline (fraction) [1]: 0.1938 fraction | Gastrin-releasing peptide (GRP): Change from GRMD Baseline (fraction) [1]: 0.0715 fraction | Glutamate carboxypeptidase 2 (FOLH1): Change from GRMD Baseline (fraction) [1]: 0.301 fraction | Glypican-2 (GPC2): Change from GRMD Baseline (fraction) [1]: 0.2818 fraction | Gremlin-1 (GREM1): Change from GRMD Baseline (fraction) [1]: 0.117 fraction | Growth/differentiation factor 8 (MSTN): Change from GRMD Baseline (fraction) [1]: 0.0197 fraction | Growth/differentiation factor 11/8 (GDF11 MSTN): Change from GRMD Baseline (fraction) [1]: 0.039 fraction | Hemoglobin (HBA1 HBB): Change from GRMD Baseline (fraction) [1]: -0.194 fraction | Heparin cofactor 2 (SERPIND1): Change from GRMD Baseline (fraction) [1]: 0.095 fraction | Hepatitis A virus cellular receptor 2 (HAVCR2): Change from GRMD Baseline (fraction) [1]: -0.0356 fraction | High affinity immunoglobulin gamma Fc receptor I (FCGR1A): Change from GRMD Baseline (fraction) [1]: 0.1553 fraction | Histone-lysine N-methyltransferase EHMT2 (EHMT2): Change from GRMD Baseline (fraction) [1]: 0.3323 fraction | Hyaluronan and proteoglycan link protein 1 (HAPLN1): Change from GRMD Baseline (fraction) [1]: 0.0551 fraction | Insulin-like growth factor 1 receptor (IGF1R): Change from GRMD Baseline (fraction) [1]: 0.1691 fraction | Integrin alpha-V: beta-5 complex (ITGAV ITGB5): Change from GRMD Baseline (fraction) [1]: -0.051 fraction | Interleukin-4 receptor subunit alpha (IL4R): Change from GRMD Baseline (fraction) [1]: 0.1823 fraction | Interleukin-18-binding protein (IL18BP): Change from GRMD Baseline (fraction) [1]: 0.0143 fraction | Interstitial collagenase (MMP1): Change from GRMD Baseline (fraction) [1]: 0.0861 fraction | Leucine-rich repeat transmembrane neuronal protein 3 (LRRTM3): Change from GRMD Baseline (fraction) [1]: 0.2512 fraction | Limbic system-associated membrane protein (LSAMP): Change from GRMD Baseline (fraction) [1]: 0.1355 fraction | Lymphocyte activation gene 3 protein (LAG3): Change from GRMD Baseline (fraction) [1]: 0.164 fraction | Lysosome membrane protein 2 (SCARB2): Change from GRMD Baseline (fraction) [1]: 0.1336 fraction | MHC class I polypeptide-related sequence B (MICB): Change from GRMD Baseline (fraction) [1]: 0.2058 fraction | Matrilin-2 (MATN2): Change from GRMD Baseline (fraction) [1]: -0.0022 fraction | Melanoma-derived growth regulatory protein (MIA): Change from GRMD Baseline (fraction) [1]: 0.1875 fraction | Moesin (MSN): Change from GRMD Baseline (fraction) [1]: -0.082 fraction | Muellerian-inhibiting factor (AMH): Change from GRMD Baseline (fraction) [1]: 0.0498 fraction | NKG2D ligand 1 (ULBP1): Change from GRMD Baseline (fraction) [1]: -0.0534 fraction | NT-3 growth factor receptor (NTRK3): Change from GRMD Baseline (fraction) [1]: 0.1168 fraction | Netrin receptor UNC5C (UNC5C): Change from GRMD Baseline (fraction) [1]: 0.03 fraction | Neurogenic locus notch homolog protein 2 (NOTCH2): Change from GRMD Baseline (fraction) [1]: 0.2188 fraction | Neurogenic locus notch homolog protein 3 (NOTCH3): Change from GRMD Baseline (fraction) [1]: 0.0936 fraction | Nuclear receptor subfamily 1 group D member 1 (NR1D1): Change from GRMD Baseline (fraction) [1]: 0.048 fraction | Phospholipase A2 (PLA2G1B): Change from GRMD Baseline (fraction) [1]: 0.0754 fraction | Placenta growth factor (PGF): Change from GRMD Baseline (fraction) [1]: -0.066 fraction | Plasminogen (PLG): Change from GRMD Baseline (fraction) [1]: 0.2052 fraction | PolyUbiquitin K63-linked (UBC): Change from GRMD Baseline (fraction) [1]: 0.2167 fraction
